In one test the target is Cdc7/ASK (Homo sapiens, UniProt O00311). The test is described as follows: Cdc7 biochemical assay Method 3: off-chip mobility shift assay (MSA) run at Carna Biosciences. Details: purchased Carna Biosciences; host or cells: baculovirus expression system. The settings on record: MCM2 peptide 1000 nM, ATP 5 μM, 5 hours, read-out: Biochemical method 3 (pIC50) (converted). As to the method: This protocol describes a method for assaying Cdc7/ASK for activity. The assay is an off-chip mobility shift assay (MSA) run at Carna Biosciences.
The test compound was dissolved in and diluted with dimethylsulfoxide (DMSO) to achieve 100-fold higher concentration which was specified by the sponsor. Then the solution was further 25-fold diluted with assay buffer to make the final test compound solution. Reference compounds for assay control were prepared similarly. 2. Kinase Cdc7/ASK: Full-length human Cdc7 [1-574(end) amino acids of accession number NP_003494.1] was co-expressed as N-terminal GST-fusion protein (92 kDa) with Dbf4(ASK) [1-674(end) amino acids of accession number NP_006707.1] using baculovirus expression system. GST-Cdc7 was purified by using glutathione sepharose chromatography. 3. Assay Reagents and Procedures Off-Chip Mobility Shift Assay (MSA) • 1) The […] were prepared with assay buffer (20 mM HEPES, 0.01% Triton X-100, 1 mM DTT, pH 7.5) and mixed and incubated in a well of polypropylene 384 well microplate for 5 hours at room temperature. • 2) […] of Termination Buffer (QuickScout Screening Assist MSA; Carna Biosciences) was added to the well. • 3) The reaction mixture was applied to LabChip system (Perkin Elmer), and the product and substrate peptide peaks were separated and quantitated. • 4) The kinase reaction was evaluated by the product ratio calculated from peak heights of product (P) and substrate (S) peptides (P/(P+S)). 4. Reaction Conditions
5. Data Analysis The readout value of reaction control (complete reaction mixture) was set as a 0% inhibition, and the readout value of background (Enzyme(−)) was set as a 100% inhibition, then the percent inhibition of each test solution was calculated. IC50 value was calculated from concentration vs. % Inhibition curves by fitting to a four parameter logistic curve. Results

In a further test the target is Cdc7 (Homo sapiens, UniProt O00311). Put plainly: Cdc7 cell pharmacodynamics assay Method 3: pS53MCM2 levels in SW48 cells. Details: endogenous in cells; host or cells: SW48. The settings on record: 6 hours treatment, read-out: Biomarker Method 3 (pEC50) (converted). The format is cell-based. From the text:
This protocol describes a method to investigate the inhibition of Cdc7 activity by measuring pS53MCM2 levels in cells, after treatment with compounds.
• SW48 cells • RPMI 1640 (Sigma, R5886) • 10% FCS (Sera Laboratories International Ltd, EU000F Batch: 108005) • 100× L-Glutamine (Invitrogen, 25030-024) • D-Glucose Solution (10%) (Sigma, G8644) • HEPES Buffer Solution (Sigma, 83264) • Sodium Pyruvate (Sigma, S8636) • PBS (Fisger, BP399-4) • Trypsin/EDTA (Invitrogen 25300-054) • 2% BSA in PBS • Cell Extraction Buffer (Invitrogen FNN0011) • Protease inhibitor cocktail (Sigma P-2714) • PMSF 0.3M stock in DMSO (Sigma P7626) • Antibody—rabbit pMCM2 Ser53 (Bethyl #A300-756A) • Antibody—goat MCM2 (Bethyl #A300-122A) • Antibody—goat Anti Rabbit IgG HRP (Perbio Science UK Ltd 31462) • SuperSignal ELISA Pico Chemiluminescent Substrate (Perbio Science UK Ltd 37070) Method • Plate 30,000 SW48 cells per well in standard TC treated 96 well plate in 100 μL complete RPMI 1640 medium. • Allow cells to settle overnight in incubator set at 37° C. and 5% CO2. • Cell treatment: prepare a 384 well plate containing 80 μl PBS/well. The PBS should be at room temperature—to be referred to as intermediate plate. Transfer 2 μL of compound from mother plate to intermediate (daughter plate) 1:40 dilution, then 5 μL intermediate to cell (daughter) plate. • Once all cells are treated place the cells back to the incubator and incubate for 6 hours. • Dilute the capture antibody (total MCM2 #A300-122A) 1 in 250 in the required volume of PBS (5 mL per assay plate, plus 5 mL for dead volume) and add 50 μL to each well of a Hybond plate. Seal the plate and incubate at room temperature for a minimum of 2 hours. • Defrost aliquot of Invitrogen Cell Extraction Buffer (FNN0011) on ice and supplement with appropriate volume of both Sigma protease inhibitor cocktail (P-2714) and PMSF (final cone 1 mM from a 1 M stock in DMSO). • After the 6 hour cell treatment time, tap out the media from the assay plates and place them in the −80° C. freezer for at least 5 minutes. • Remove plates from freezer and add 20 μL of ice cold complete lysis buffer, with the multidrop. Incubate cells for 30 minutes at 4° C. • Add 80 μL per well 2% BSA. • Flick out the remaining liquid from the capture plate and transfer 80 μL from the lysis plate to the same wells in the capture/ELISA plate, using the Biomek. Cover with plate seal and incubate plates overnight at 4° C. • Wash plates with PBS, remove any residual remaining liquid and add 50 μL per well of pMCM2 Ser53 antibody (#A300-756A) diluted 1 in 100 in 2% BSA. Cover plate and incubate at room temperature for 2 hours with gentle shaking. • Wash plates with PBS, remove any residual remaining liquid and Incubate with 50 μL goat anti rabbit antibody (1 in 800 dilution in 2% BSA), for 1 hour at room temperature. • Wash plates with PBS, remove any residual remaining liquid and add 50 μL mixed SuperSignal Pico substrate. • Incubate each plate for 5 minutes at room temperature shielding the plates from direct light (with a cover plate). Read plates with the luminescent detection. Results

Where a name gives a salt, the structure may show the parent alone.

Sequence of Cdc7/ASK (O00311 whole entry): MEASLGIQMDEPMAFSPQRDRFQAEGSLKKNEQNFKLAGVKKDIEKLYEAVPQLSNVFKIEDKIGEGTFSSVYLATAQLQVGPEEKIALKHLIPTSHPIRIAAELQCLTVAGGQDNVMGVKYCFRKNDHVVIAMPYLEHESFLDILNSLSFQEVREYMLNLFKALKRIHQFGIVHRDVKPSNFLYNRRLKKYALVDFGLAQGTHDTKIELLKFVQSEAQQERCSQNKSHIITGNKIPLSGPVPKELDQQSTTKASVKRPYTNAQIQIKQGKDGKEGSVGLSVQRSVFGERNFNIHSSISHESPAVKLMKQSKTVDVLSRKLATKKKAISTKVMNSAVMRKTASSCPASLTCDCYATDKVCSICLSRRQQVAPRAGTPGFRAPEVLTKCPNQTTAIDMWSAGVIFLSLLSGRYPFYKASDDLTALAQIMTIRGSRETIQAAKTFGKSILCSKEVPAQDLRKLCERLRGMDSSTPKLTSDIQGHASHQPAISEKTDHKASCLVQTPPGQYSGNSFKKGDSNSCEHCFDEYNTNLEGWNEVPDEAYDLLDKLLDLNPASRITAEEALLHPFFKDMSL
Sequence of Cdc7/ASK (Q9UBU7 whole entry partner): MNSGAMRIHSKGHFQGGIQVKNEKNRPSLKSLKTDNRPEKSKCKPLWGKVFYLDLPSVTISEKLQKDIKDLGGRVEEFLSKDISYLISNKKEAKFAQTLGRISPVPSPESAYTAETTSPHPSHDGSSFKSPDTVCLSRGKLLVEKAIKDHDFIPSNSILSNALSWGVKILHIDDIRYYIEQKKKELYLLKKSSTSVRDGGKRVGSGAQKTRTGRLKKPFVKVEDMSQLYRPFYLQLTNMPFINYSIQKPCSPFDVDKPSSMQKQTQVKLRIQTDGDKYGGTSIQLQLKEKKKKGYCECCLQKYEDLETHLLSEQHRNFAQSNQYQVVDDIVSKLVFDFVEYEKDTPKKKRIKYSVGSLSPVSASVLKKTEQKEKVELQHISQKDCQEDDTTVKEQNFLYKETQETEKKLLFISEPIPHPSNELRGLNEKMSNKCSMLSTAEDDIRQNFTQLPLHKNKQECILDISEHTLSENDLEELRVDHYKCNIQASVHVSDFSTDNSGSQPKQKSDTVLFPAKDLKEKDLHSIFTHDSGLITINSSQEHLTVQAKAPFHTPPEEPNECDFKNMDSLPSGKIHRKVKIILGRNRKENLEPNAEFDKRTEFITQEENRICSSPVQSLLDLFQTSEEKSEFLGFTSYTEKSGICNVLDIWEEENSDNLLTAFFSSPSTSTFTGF
Sequence of Cdc7 (O00311 whole entry): as the sequence (O00311 whole entry) above
Sequence of Cdc7 (Q9UBU7 whole entry partner): as the sequence (Q9UBU7 whole entry partner) above

As for `O=c1[nH]c(-c2scnc2Cl)nc(N2CCNCC(F)C2)c1Cl` (racemic) [Compound 71, 5-chloro-2-(4-chlorothiazol-5-yl)-4-(6-fluoro-1,4-diazepan-1-yl)-1H-pyrimidin-6-one hydrochloride], the IC50 at Cdc7/ASK was 5.75 nM. The EC50 on Cdc7 was 251 nM.

Regarding `O=c1[nH]c(-c2scnc2Cl)nc(N2CCNCC2C(F)F)c1Cl` (single isomer, unassigned) [Compound 69, 5-chloro-2-(4-chlorothiazol-5-yl)-4-[2-(difluoromethyl)piperazin-1-yl]-1H-pyrimidin-6-one hydrochloride], on Cdc7/ASK, the IC50 is 3.39 nM. For the same compound, the EC50 at Cdc7 is 16.6 nM.

In the case of `O=c1[nH]c(-c2scnc2Cl)nc(N2CCNCC2C(F)F)c1Cl` (single isomer, unassigned) [Compound 70, 5-chloro-2-(4-chlorothiazol-5-yl)-4-[2-(difluoromethyl)piperazin-1-yl]-1H-pyrimidin-6-one hydrochloride], the IC50 on Cdc7/ASK is 6.76 nM. For the same compound, the EC50 on Cdc7 is 324 nM.

As for `O=c1[nH]c(-c2scnc2Cl)nc(N2CCNCC(F)C2)c1Cl` (single isomer, unassigned) [Compound 72, 5-chloro-2-(4-chlorothiazol-5-yl)-4-(6-fluoro-1,4-diazepan-1-yl)-1H-pyrimidin-6-one hydrochloride], the IC50 on Cdc7/ASK is 3.8 nM. The EC50 at Cdc7 was 95.5 nM.

With `O=c1[nH]c(-c2scnc2Cl)nc(N2CCNCC(F)C2)c1Cl` (single isomer, unassigned) [Compound 73, 5-chloro-2-(4-chlorothiazol-5-yl)-4-(6-fluoro-1,4-diazepan-1-yl)-1H-pyrimidin-6-one hydrochloride], the IC50 at Cdc7/ASK is 10.2 nM. On Cdc7, the EC50 is 1320 nM.

Turning to `O=c1[nH]c(-c2cn[nH]c2Cl)nc(N2CCNCC(F)(F)C2)c1Cl` [Compound 40, 5-chloro-2-(5-chloro-1H-pyrazol-4-yl)-4-(6,6-difluoro-1,4-diazepan-1-yl)-1H-pyrimidin-6-one hydrochloride], the IC50 at Cdc7/ASK was 3.72 nM. The EC50 on Cdc7 was 195 nM.

Consider `C[C@@H]1COCCN1c1nc(-c2cn[nH]c2Cl)[nH]c(=O)c1Cl` [Compound 42, 5-chloro-2-(5-chloro-1H-pyrazol-4-yl)-4-[(3R)-3-methylmorpholin-4-yl]-1H-pyrimidin-6-one], for which the IC50 on Cdc7/ASK is 3.8 nM. On Cdc7, the EC50 was 389 nM.

`Cc1nocc1-c1nc(N2CCNC[C@H]2C)c(Cl)c(=O)[nH]1` [Compound 49, 5-chloro-2-(3-methylisoxazol-4-yl)-4-[(2R)-2-methylpiperazin-1-yl]-1H-pyrimidin-6-one]: on Cdc7/ASK, the IC50 was 51.3 nM. Moreover, on Cdc7, the EC50 is 4570 nM.

On to `C[C@@H]1CNCCN1c1nc(-c2ccnn2C)[nH]c(=O)c1Cl` [Compound 50, 5-chloro-4-[(2R)-2-methylpiperazin-1-yl]-2-(2-methylpyrazol-3-yl)-1H-pyrimidin-6-one], for which the IC50 on Cdc7/ASK is 43.7 nM. Moreover, at Cdc7, the EC50 is 3630 nM.

Regarding `Cc1nccn1-c1nc(N2CCOC[C@H]2C)c(Cl)c(=O)[nH]1` [Compound 56, 5-chloro-2-(2-methylimidazol-1-yl)-4-[(3R)-3-methylmorpholin-4-yl]-1H-pyrimidin-6-one], at Cdc7/ASK, the IC50 is 44.7 nM. At Cdc7, the EC50 was 4170 nM.

As for `Cc1ncsc1-c1nc(N2CCNCC(F)(F)C2)c(Cl)c(=O)[nH]1` [Compound 57, 5-chloro-4-(6,6-difluoro-1,4-diazepan-1-yl)-2-(4-methylthiazol-5-yl)-1H-pyrimidin-6-one hydrochloride], the IC50 at Cdc7/ASK is 6.46 nM. In addition, the EC50 on Cdc7 is 724 nM.

In the case of `Cc1ncsc1-c1nc(N2CCNC[C@H]2C)c(Cl)c(=O)[nH]1` [Compound 58, 5-chloro-4-[(2R)-2-methylpiperazin-1-yl]-2-(4-methylthiazol-5-yl)-1H-pyrimidin-6-one], at Cdc7/ASK, the IC50 was 7.08 nM. In addition, at Cdc7, the EC50 was 331 nM.

Consider `Cc1ncsc1-c1nc(N2CCOC[C@H]2C)c(Cl)c(=O)[nH]1` [Compound 59, 5-chloro-4-[(3R)-3-methylmorpholin-4-yl]-2-(4-methylthiazol-5-yl)-1H-pyrimidin-6-one], for which the IC50 at Cdc7/ASK is 7.41 nM. Besides, at Cdc7, the EC50 is 724 nM.

Turning to `Cc1ncsc1-c1nc(N2CCNCC2C(F)(F)F)c(Cl)c(=O)[nH]1` (stereo not shown) [Compound 60, 5-chloro-2-(4-methylthiazol-5-yl)-4-[2-(trifluoromethyl)piperazin-1-yl]-1H-pyrimidin-6-one], at Cdc7/ASK, the IC50 was 20 nM. Moreover, the EC50 at Cdc7 is 1230 nM.

Take `Cc1ncsc1-c1nc(N2CCNCC2C(F)F)c(Cl)c(=O)[nH]1` (stereo not shown) [Compound 61, 5-chloro-4-[2-(difluoromethyl)piperazin-1-yl]-2-(4-methylthiazol-5-yl)-1H-pyrimidin-6-one]: at Cdc7/ASK, the IC50 is 12.9 nM. Besides, the EC50 at Cdc7 is 162 nM.

With `Cc1ncsc1-c1nc(N2CCNCC(F)C2)c(Cl)c(=O)[nH]1` (stereo not shown) [Compound 62, 5-chloro-4-(6-fluoro-1,4-diazepan-1-yl)-2-(4-methylthiazol-5-yl)-1H-pyrimidin-6-one], the IC50 at Cdc7/ASK was 21.4 nM. For the same compound, the EC50 on Cdc7 was 977 nM.

Turning to `O=c1[nH]c(-c2scnc2C(F)(F)F)nc(N2CCNCC(F)(F)C2)c1Cl` [Compound 63, 5-chloro-4-(6,6-difluoro-1,4-diazepan-1-yl)-2-[4-(trifluoromethyl)thiazol-5-yl]-1H-pyrimidin-6-one], on Cdc7/ASK, the IC50 is 5.5 nM. For the same compound, the EC50 at Cdc7 is 525 nM.

On to `C[C@@H]1COCCN1c1nc(-c2scnc2Cl)[nH]c(=O)c1Cl` [Compound 64, 5-chloro-2-(4-chlorothiazol-5-yl)-4-[(3R)-3-methylmorpholin-4-yl]-1H-pyrimidin-6-one], for which, on Cdc7/ASK, the IC50 was 4.17 nM. For the same compound, at Cdc7, the EC50 was 166 nM.

For the compound `C[C@@H]1CNCCN1c1nc(-c2scnc2Cl)[nH]c(=O)c1Cl` [Compound 65, 5-chloro-2-(4-chlorothiazol-5-yl)-4-[(2R)-2-methylpiperazin-1-yl]-1H-pyrimidin-6-one hydrochloride], on Cdc7/ASK, the IC50 is 3.89 nM. Also, at Cdc7, the EC50 is 38 nM.

For the compound `O=c1[nH]c(-c2scnc2Cl)nc(N2CCNCC(F)(F)C2)c1Cl` [Compound 66, 5-chloro-2-(4-chlorothiazol-5-yl)-4-(6,6-difluoro-1,4-diazepan-1-yl)-1H-pyrimidin-6-one hydrochloride], the IC50 at Cdc7/ASK is 4.27 nM. In addition, on Cdc7, the EC50 is 75.9 nM.
